# Measured values taken from patent publication US20120172375A1, “COMPOUNDS AND METHODS OF PROMOTING OLIGODENDROCYTE PRECURSOR DIFFERENTIATION” (priority 2008, published 2012).
# Test system: oligodendrocyte progenitors
# Assay: Primary/secondary screening: oligodendrocyte progenitor morphology changes and Plp-EGFP fluorescence
# Type: cell-based, mouse
# Parameters: key to differentiation scale score (cell morphology): 1: bipolar, undifferentiated; 2: bipolar to tripolar, initiated differentiation; 3: multibranched, differentiated cells; 4: multibranched, differentiated cells showing membranous structures
# Conditions: 10 μM, 48 hr
# Experimental: Oligodendrocyte progenitors were generated from embryonic neural progenitors growing in cell aggregates known as neurospheres (Nphs). Nph were prepared from embryos at 14.5 days of gestation obtained from timed pregnant females of either wild type mice or the proteolipid protein-enhanced-green fluorescence protein (Plp-EGFP) transgenic mouse. In brief, after separation of meninges and cerebellum, cerebrum tissue was mechanically triturated with a 1 ml Gilson pipette until total tissue disaggregation was achieved, filtered through a 70 μm cell strainer (Fisher Scientific, Pittsburg, Pa.) and plated in 25 cm^2 plastic culture flasks (2 brains/flask). Nph proliferation media (NPM) was DMEM/F12, B27 neuronal supplement (Gibco, Baltimore, Md.) and 10 ng/ml EGF (Sigma, St. Louis, Mo.). After 48-72 hr, floating Nphs were passaged at a 1:3 ratio in the same medium every 3-4 days. To generate oligodendrocyte progenitors, single cells suspensions were obtained by chemical disgregation with the mouse NeuroCult dissociation kit (StemCell Technologies, Alberta, Canada). The single cell suspension was filtered through a 70 μm cell strainer and plated on 96-well poly-D-Lysine (PDL)-coated plates at a cell density of 1.5×10^4 cells/cm^2. Cells were maintained in NPM supplemented with 10 ng/ml PDGF/bFGF instead of EGF. Bipolar, oligodendrocyte progenitor cells were observed 24 hours after plating. […]
# The small molecule library consists of handcrafted drug-like organic molecules with molecular weight in a range of 250-550, dissolved in DMSO at concentration of 5 mg/ml or […]. Their structure and >95% purity have been validated by NMR. […] Oligodendrocyte progenitor differentiation was scored using as 4 scale values as follows: 1: bipolar, undifferentiated; 2: bipolar to tripolar, initiated differentiation; 3: multibranched, differentiated cells; 4: multibranched, differentiated cells showing membranous structures (FIG. 1).
# Differentiation induced by selected compounds was further validated by fluorescence microscopy in cells generated from our Plp-EGFP transgenic mouse. Increased fluorescence in treated oligodendrocyte progenitor was indicative of cell maturation and was again scored following the same scale. […] These were analyzed for cell toxicity assays by MTT were yellow 3-(4,5-Dimethylthiazol-2-yl)-2,5-diphenyltetrazolium bromide, a tetrazole (MTT) is reduced to purple formazan in the mitochondria of living cells, showing a solution color change measurable by OD620-590 (Data not shown). Further oligodendrocyte progenitor maturation in response to selected compounds was assessed by induction of myelin protein expression as determined by immunocytochemistry and western blot. […]
structure (smiles),measurement,value
"CCS(=O)(=O)N1CCN(C(=O)COc2ccc(-c3ccccc3)cc2)CC1 [Compound A, 1-[(4-biphenylyloxy)acetyl]-4-(ethylsulfonyl)piperazine]",differentiation scale score (cell morphology),4
